Tests used:
[1] = Mouse 7-day dose range finding study; format: in vivo; conditions: 7 days
Method: Preparation of Test and Control/Vehicle Items: Vehicle is 2% TPGS/1.5% HPMCAS-HF/1.5% PVP-VA with 50 mM sodium citrate (pH 5.0) in deionized water. LPT-723 is a spray dried dispersion (SDD) containing 25% active and 75% HPMCAS-HF polymer. Test and vehicle items were stored at room temperature, protected from light, and desiccated. Dose formulation was prepared daily. Unless indicated otherwise, LPT-723 was mixed with vehicle to achieve the desired concentrations, using appropriate mixing equipment to achieve homogenous formulations.
The LPT-723 and vehicle were administered once per day for 7 consecutive days. Doses were administered at approximately the same time (±2 hours) throughout the duration of the study. All main study animals were submitted for necropsy on Day 8 (the day following the final dose).

[2] = tested on: HCT116 cells; test: In vitro activity on HCT116 cells in culture; format: cell-based, human; conditions: up to 30 μM
[3] = Monkey 7-day dose range finding study; format: in vivo
Method: Preparation of the Control/Vehicle Item: The control/vehicle item (2% TPGS/1.5% HPMCAS-HF/1.5% PVP-VA with 50 mM sodium citrate buffer pH 5.0) was prepared 3 days prior to the start of dosing and was stored at room temperature, away from direct light for the duration of the study. The instructions below were for the preparation of a final volume of 2.5 L. These instructions were scaled as needed.
500 mL of 10% Vitamin E-TPGS were added to an appropriate sized container and stirring was initiated. 750 mL of 5% HPMCAS-HF/5% PVP-VA were added to the same container and stirred at medium speed for 30 minutes to ensure proper mixing. 1 L of deionized water was added and stirring was continued for 30 minutes. 125 mL of 1M sodium citrate buffer and 125 mL of deionized water were added with stirring. The final vehicle was stirred at medium speed for 1 hour. The vehicle was a hazy solution and was stored at room temperature, away from direct light for the duration of the study.
Experimental Design: The test and control/vehicle items were administered once daily for 7 consecutive days by oral gavage as described in Table 6 below. The dose volume administered to each animal was 5 mL/kg. One day after the end of dosing, the Main animals were euthanized and subjected to a necropsy examination on Day 8.

[4] = Rat 28-day GLP toxicity study; format: in vivo, CD [Crl:CD (SD)] rats
Method: Vehicle and Test Article Preparation: The vehicle, 2% TPGS/1.5% HPMCAS-HF/1.5% PVP-VA with 50 mM pH 5.0 sodium citrate in deionized water, was prepared for use weekly and was stored at room temperature when not in use. A correction factor of 4 was used to adjust for purity when preparing the LPT-723 formulations. Appropriate amounts of the LPT-723 were mixed with the vehicle to achieve nominal concentrations of 0.3, 0.6, and 1.2 mg/mL. Formulations of the LPT-723 were prepared daily, stored at room temperature, protected from light, and were dosed within 4 hours of preparation.
Animal Acquisition and Acclimation: A total of 98 male and 98 female CD® [Crl:CD® (SD)] rats (approximately 6 to 7 weeks of age at receipt) were received from Charles River Laboratories, Portage, Mich. During the 10-day acclimation period, the animals were observed daily with respect to general health and any signs of disease. All animals were given a detailed clinical examination prior to selection for study. The animals were administered a sham dose of tap water on two occasions in the same manner and dose volume intended for use on study.
Randomization, Assignment to Study, and Maintenance: Using a standard, by weight, measured value randomization procedure, 85 male and 85 female animals (weighing 228 to 283 g and 170 to 218 g, respectively, at randomization) were assigned to the control and treatment groups identified in the following table.
Vehicle and LPT-723 Administration: Vehicle and LPT-723 were administered once daily for 22 days for main study animals at 12 mg/kg/day, for 23 days for TK animals at 12 mg/kg/day, and for 28 days for all animals at 0, 3, and 6 mg/kg/day. The animals were dosed via oral gavage at a dose volume of 10 mL/kg. The control group received the vehicle in the same manner as the treated groups. The vehicle and test article were dosed from stirred formulations at approximately the same time each day (±2 hours) based on the first animal dosed each day. Individual doses were based on the most recent body weights.

[5] = tested on: Salmonella typhimurium TA98 and TA100; test: 2-Strain Ames test; conditions: 1.5 to 5000 μg per plate, with and without rat liver S9
Excerpt: Test System: The two tester strains used were the Salmonella typhimurium histidine auxotrophs TA98 and TA100 as described by Ames et al. (1975). Tester strain TA98 is reverted from auxotrophy to prototrophy by frameshift mutagens while tester strain TA100 is reverted by mutagens that cause both frameshift and base pair substitution mutations.
Experimental Design: The test system was exposed to LPT-723 via the plate incorporation methodology originally described by McCann et al. (1975) and updated by Maron and Ames (1983). Briefly, LPT-723 was tested at eight dose levels along with appropriate vehicle control and positive controls. Overnight cultures of tester strains TA98 and TA100 were plated on selective minimal agar in the presence and absence of Aroclor-induced rat liver S9. […]
Plating and Scoring Procedures: LPT-723 dilutions were prepared immediately before use and delivered to the test system at room temperature under yellow light. […] Plates were counted immediately following the incubation period or were stored at 2-8° C. until colony counting could be conducted.
The condition of the bacterial background lawn was evaluated for evidence of LPT-723 toxicity using a dissecting microscope. Precipitate was evaluated by visual examination without magnification. […] Plates with sufficient LPT-723 precipitate to interfere with automated colony counting were counted manually. […]

[6] = tested on: MBT-2 cells; test: In vitro cell viability assay, MBT-2; format: cell-based, murine; conditions: Mus musculus

## Cc1cc(-c2cncc(C(O)C(F)(F)F)c2)nc2c1C(=O)N(c1cnn(CC(F)F)c1)C2(C)C (centres unmarked) [LPT-723]
[1]; mouse, 15, 35, 70 mg/kg/day
  tolerability: well tolerated
[1]; mouse
  clinical signs and histopathology: no clinical signs or histopatholoy findings
  lymphocyte and monocyte counts: decrease in lymphocyte and monocyte counts
[2]
  activity in vitro on HCT116 cells in culture: no activity
[3]; monkey, 40 mg/kg/day oral, 7 days
  highest dose versus maximum tolerated dose: exceeded the maximum tolerated dose (MTD)
[3]; monkey, 15, 25, 40 mg/kg/day, 7 days
  lymphocyte counts: dose-related decrease in lymphocyte counts
[3]; monkey, with lower doses
  expected therapeutic index: approximately 5
[4]
  therapeutic index: < 4
  tolerability: poorly tolerated
[4]; both sexes, CD [Crl:CD (SD)], in vivo, oral gavage once daily, 3, 6, 12 mg/kg/day, read-out: no observed adverse effect level (NOAEL)
  NOAEL: < 3 mg/kg
[4]; clinical chemistry
  circulating neutrophils: large increase in circulating neutrophils
[4]; particularly gastrointestinal tract
  tissue findings: inflammatory state in multiple organs
[5]
  toxicity (Ames plate incorporation): No toxicity was observed
[6]
  IC50: 45.5 µM

From patent US11033537B2, “LPT-723 and immune checkpoint inhibitor combinations and methods of treatment” (BIOMED VALLEY DISCOVERIES, INC., priority 2015, dated 2021)
